From ChEMBL document CHEMBL3044543, “Synthetic sialic-acid-containing polyvalent antiviral inhibitors” (Med Chem Res, 2009)

Assays:
[1] = target: Hemagglutinin (Influenza A virus) (UniProt K7N5L2); test: Inhibition of Influenza virus A/H3N2/NIB/44/90M Hemagglutinin after 2 hr by horseradish peroxidase assay relative to Neu5Aalpha
[2] = target: Hemagglutinin (Influenza A virus, UniProt K7N5L2); test: Binding affinity to Influenza virus A Hemagglutinin

| Compound | Ratio [1] | IC50 [2] [mM] |
| --- | --- | --- |
| CC(=O)N[C@H]1[C@H]([C@H](O)[C@H](O)CO)OC(OCc2ccc(NC(=O)CNC(=O)CCCCC(=O)NCC(=O)NCC(=O)NCC(=O)NCC(=O)NCC(=O)NCC(=O)NCC(=O)NCC(CNC(=O)CNC(=O)CNC(=O)CNC(=O)CNC(=O)CNC(=O)CNC(=O)CNC(=O)CCCCC(=O)NCC(=O)Nc3ccc(COC4(C(=O)O)C[C@H](O)[C@@H](NC(C)=O)[C@H]([C@H](O)[C@H](O)CO)O4)cc3)(CNC(=O)CNC(=O)CNC(=O)CNC(=O)CNC(=O)CNC(=O)CNC(=O)CNC(=O)CCCCC(=O)NCC(=O)Nc3ccc(COC4(C(=O)O)C[C@H](O)[C@@H](NC(C)=O)[C@H]([C@H](O)[C@H](O)CO)O4)cc3)CNC(=O)CNC(=O)CNC(=O)CNC(=O)CNC(=O)CNC(=O)CNC(=O)CNC(=O)CCCCC(=O)NCC(=O)Nc3ccc(COC4(C(=O)O)C[C@H](O)[C@@H](NC(C)=O)[C@H]([C@H](O)[C@H](O)CO)O4)cc3)cc2)(C(=O)O)C[C@@H]1O (some centres not stated) | 1000 | – |
| CC(=O)N[C@H]1[C@H]([C@H](O)[C@H](O)CO)OC(OCCCCCCC(=O)NCc2cccc3ccccc23)(C(=O)O)C[C@@H]1OC(=O)CNS(=O)(=O)c1cccc2c(N(C)C)cccc12 (some centres not stated) | – | 3 |
